Laboratory results taken from patent publication US8618152B2, “Inhibitors of serine proteases, particularly HCV NS3-NS4A proteases” (Vertex Pharmaceuticals Incorporated, priority 2003, dated 2013).
*1 amine or outer side, *2 acyl side, *3 side chain or, on linkers, in order; H or OH if unused. Where a SMILES comes first, the peptide text is derived from it. [ ]: non-standard residue; d: D form. The star is where a group is joined. ξ: configuration not given here. Pro(trans-3-iPr) = CC(C)[C@H]1CCN[C@@H]1C(=O)O; Pro(3S-Et) = CC[C@H]1CCN[C@@H]1C(=O)O; Phe(2-Me) = Cc1ccccc1C[C@H](N)C(=O)O; Pyrazinecarbonyl = O=C(c1cnccn1)*; X1 = CCCC(N[*:1])C(=O)C(=O)[*:2]; Ile(3ξ) = CCC(C)[C@H](N)C(=O)O; aThr = C[C@H](O)[C@H](N)C(=O)O; Chg = N[C@H](C(=O)O)C1CCCCC1; Tle = CC(C)(C)[C@H](N)C(=O)O

System: Cells containing hepatitis C virus (HCV) replicon
Assay: HCV replicon cell assay
Assay type: cell-based
Conditions: 50% inhibition of HCV RNA level, 48-hour incubation, Taqman real-time RT-PCR, read-out: IC50
Procedure: HCV Replicon Cell Assay Protocol
Cells containing hepatitis C virus (HCV) replicon were maintained in DMEM containing 10% fetal bovine serum (FBS), 0.25 mg per ml of G418, with appropriate supplements (media A).
On day 1, replicon cell monolayer was treated with a trypsin:EDTA mixture, removed, and then media A was diluted into a final concentration of 100,000 cells per ml with. 10,000 cells in 100 ul were plated into each well of a 96-well tissue culture plate, and cultured overnight in a tissue culture incubator at 37° C.
On day 2, compounds (in 100% DMSO) were serially diluted into DMEM containing 2% FBS, 0.5% DMSO, with appropriate supplements (media B). The final concentration of DMSO was maintained at 0.5% throughout the dilution series.
Media on the replicon cell monolayer was removed, and then media B containing various concentrations of compounds was added. Media B without any compound was added to other wells as no compound controls.
Cells were incubated with compound or 0.5% DMSO in media B for 48 hours in a tissue culture incubator at 37° C. At the end of the 48-hour incubation, the media was removed, and the replicon cell monolayer was washed once with PBS and stored at −80° C. prior to RNA extraction.
Culture plates with treated replicon cell monolayers were thawed, and a fixed amount of another RNA virus, such as Bovine Viral Diarrhea Virus (BVDV) was added to cells in each well. RNA extraction reagents (such as reagents from RNeasy kits) were added to the cells immediately to avoid degradation of RNA. Total RNA was extracted according the instruction of manufacturer with modification to improve extraction efficiency and consistency. Finally, total cellular RNA, including HCV replicon RNA, was eluted and stored at −80° C. until further processing.
A Taqman real-time RT-PCR quantification assay was set up with two sets of specific primers and probe. One was for HCV and the other was for BVDV. Total RNA extractants from treated HCV replicon cells was added to the PCR reactions for quantification of both HCV and BVDV RNA in the same PCR well. Experimental failure was flagged and rejected based on the level of BVDV RNA in each well. The level of HCV RNA in each well was calculated according to a standard curve run in the same PCR plate. The percentage of inhibition or decrease of HCV RNA level due to compound treatment was calculated using the DMSO or no compound control as 0% of inhibition. The IC50 (concentration at which 50% inhibition of HCV RNA level is observed) was calculated from the titration curve of any given compound.

| Structure (SMILES) | IC50 [nM] |
| --- | --- |
| CCC[C@H](NC(=O)[C@@H]1[C@@H](C(C)(C)C)CCN1C(=O)[C@@H](NC(=O)[C@@H](NC(=O)c1cnccn1)C1CCCCC1)C(C)(C)C)C(=O)C(=O)NC1CC1 [Compound 73] | > 1000 |
| CCCC(NC(=O)[C@@H]1[C@@H](CC)CCN1C(=O)[C@@H](NC(=O)[C@@H](NC(=O)c1cnccn1)C(c1ccccc1)c1ccccc1)C(C)C)C(=O)C(=O)NC1CC1 (stereo partly drawn) [Compound 60] | > 1000 |

Same assay, conditions: 48 h

| Structure (SMILES) | IC50 [nM] |
| --- | --- |
| CCCC(NC(=O)[C@@H]1[C@@H](CC)CCN1C(=O)[C@@H](NC(=O)[C@@H](NC(=O)c1cnccn1)C1CCCCC1)C(C)(C)C)C(=O)C(=O)N[C@@H](Cc1ccccc1)C(=O)O (stereo partly drawn) [Compound 41] (Pyrazinecarbonyl-[Chg][Tle][Pro(3S-Et)][X1]F-OH) | < 500 |

Molecular target: HCV NS3-NS4A protease (tNS3 with KK4A) (Hepatitis C virus genotype 1a, UniProt P27958)
Assay: HCV Ki assay (HPLC microbore separation of 5AB substrate and products)
Assay type: biochemical
Conditions: 25 nM tNS3, 25 μM KK4A, 25 μM 5AB substrate, 20 min at 30 C; read-out: Ki
Procedure: HPLC Microbore Method for Separation of 5AB Substrate and Products
Substrate: NH2-Glu-Asp-Val-Val-(alpha)Abu-Cys-Ser-Met-Ser-Tyr-COOH
A stock solution of 20 mM 5AB (or concentration of your choice) was made in DMSO w/0.2M DTT. This was stored in aliquots at −20 C.
Buffer: 50 mM HEPES, pH 7.8; 20% glycerol; 100 mM NaCl
Total assay volume was 100 μL
The buffer, KK4A, DTT, and tNS3 were combined; distributed 78 μL each into wells of 96 well plate. This was incubated at 30 C for ˜5-10 min.
2.5 μL of appropriate concentration of test compound was dissolved in DMSO (DMSO only for control) and added to each well. This was incubated at room temperature for 15 min.
Initiated reaction by addition of 20 μL of 250 μM 5AB substrate (25 μM concentration is equivalent or slightly lower than the Km for 5AB).
Incubated for 20 min at 30 C.
Terminated reaction by addition of 25 μL of 10% TFA
Transferred 120 μL aliquots to HPLC vials
Separated SMSY product from substrate and KK4A by the following method:
Microbore Separation Method:
Instrumentation: Agilent 1100
Column thermostated chamber G1316A
Diode array detector G1315A
Solvent A=HPLC grade water+0.1% TFA
Solvent B=HPLC grade acetonitrile+0.1% TFA
Stop time: 17 min Post-run time: 10 min.

Sequence of HCV NS3-NS4A protease (tNS3 with KK4A) (P27958 1027-1208): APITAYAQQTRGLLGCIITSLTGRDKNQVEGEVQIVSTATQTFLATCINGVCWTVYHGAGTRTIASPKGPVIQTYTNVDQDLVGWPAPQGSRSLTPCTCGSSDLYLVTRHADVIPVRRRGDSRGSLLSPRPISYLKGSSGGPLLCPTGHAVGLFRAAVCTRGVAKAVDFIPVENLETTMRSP

| Structure (SMILES) | Ki [nM] |
| --- | --- |
| CCC[C@H](NC(=O)[C@@H]1[C@@H](C(C)(C)C)CCN1C(=O)[C@@H](NC(=O)[C@@H](NC(=O)c1cnccn1)C1CCCCC1)C(C)(C)C)C(=O)C(=O)NC1CC1 [Compound 73] | 100 to 500 |
| CCCC(NC(=O)[C@@H]1[C@@H](CC)CCN1C(=O)[C@@H](NC(=O)[C@@H](NC(=O)c1cnccn1)C1CCCCC1)C(C)CC)C(=O)C(=O)NC1CC1 (stereo partly drawn) [Compound 25] | 100 to 500 |
| CCCC(NC(=O)[C@@H]1[C@@H](C(=O)OC)CCN1C(=O)[C@@H](NC(=O)[C@@H](NC(=O)c1cnccn1)C(C)C)C(C)C)C(=O)C(=O)N[C@@H](Cc1ccccc1)C(=O)O (stereo partly drawn) [Compound 15] | 100 to 500 |
| CCCC(NC(=O)[C@@H]1C(CC)CCN1C(=O)[C@@H](NC(=O)[C@@H](NC(=O)c1cnccn1)C(C)C)C(C)C)C(=O)C(=O)N[C@@H](Cc1ccccc1)C(=O)O (stereo partly drawn) [Compound 5] | < 100 |
| CCCC(NC(=O)[C@@H]1[C@@H](CC)CCN1C(=O)[C@@H](NC(=O)[C@@H](NC(=O)c1cnccn1)C(C)C)[C@@H](C)OCC)C(=O)C(=O)N[C@@H](Cc1ccccc1)C(=O)O (stereo partly drawn) [Compound 36] (Pyrazinecarbonyl-VT(Et)[Pro(3S-Et)][X1]F-OH) | 100 to 500 |
| CCCC(NC(=O)[C@@H]1[C@@H](CC)CCN1C(=O)[C@@H](NC(=O)[C@H](CC(C)C)NC(=O)c1cnccn1)C(C)C)C(=O)C(=O)N[C@@H](Cc1ccccc1)C(=O)O (stereo partly drawn) [Compound 28] (Pyrazinecarbonyl-LV[Pro(3S-Et)][X1]F-OH) | < 100 |
| CCCC(NC(=O)[C@@H]1[C@@H](C(C)CC)CCN1C(=O)[C@@H](NC(=O)[C@@H](NC(=O)c1cnccn1)C(C)C)C(C)C)C(=O)C(=O)N[C@@H](Cc1ccccc1)C(=O)O (stereo partly drawn) [Compound 57] | < 100 |
| CCCC(NC(=O)[C@@H]1[C@@H](CC)CCN1C(=O)[C@@H](NC(=O)[C@@H](NC(=O)c1ncc[nH]1)C1CCCCC1)C(C)C)C(=O)C(=O)NC1CC1 (stereo partly drawn) [Compound 53] | 100 to 500 |
| CCCC(NC(=O)[C@@H]1[C@@H](CC)CCN1C(=O)[C@@H](NC(=O)[C@@H](NC(=O)c1cnccn1)C1CCCCC1)C(C)(C)C)C(=O)C(=O)N[C@@H](Cc1ccccc1)C(=O)O (stereo partly drawn) [Compound 41] (Pyrazinecarbonyl-[Chg][Tle][Pro(3S-Et)][X1]F-OH) | > 500 |
| CCCC(NC(=O)[C@@H]1[C@@H](CC)CCN1C(=O)[C@@H](NC(=O)[C@@H](NC(=O)c1cnccn1)C1CCCCC1)C(C)C)C(=O)C(=O)N[C@@H](C)c1ccccc1 (stereo partly drawn) [Compound 43] | 100 to 500 |
| CCCC(NC(=O)[C@@H]1[C@@H](CC)CCN1C(=O)[C@@H](NC(=O)[C@@H](NC(=O)c1cnccn1)C1CCCCC1)C1CCCCC1)C(=O)C(=O)N[C@@H](C)c1ccccc1 (stereo partly drawn) [Compound 50] | 100 to 500 |
| CCCC(NC(=O)[C@@H]1[C@@H](CC)CCN1C(=O)[C@@H](NC(=O)[C@@H](NC(=O)c1cnccn1)C1CCCCC1)C1CCCCC1)C(=O)C(=O)N[C@@H](Cc1ccccc1)C(=O)O (stereo partly drawn) [Compound 42] (Pyrazinecarbonyl-[Chg][Chg][Pro(3S-Et)][X1]F-OH) | < 100 |
| CCCC(NC(=O)[C@@H]1[C@@H](C)CCN1C(=O)[C@@H](NC(=O)[C@@H](NC(=O)c1cnccn1)C(C)C)C(C)C)C(=O)C(=O)N[C@@H](Cc1ccccc1)C(=O)O (stereo partly drawn) [Compound 22] | 100 to 500 |
| CCCC(NC(=O)[C@@H]1[C@@H](CC)CCN1C(=O)[C@@H](NC(=O)[C@@H](NC(=O)c1cnccn1)C1CCCCC1)C(C)CC)C(=O)C(=O)N[C@@H](C)c1ccccc1 (stereo partly drawn) [Compound 51] | 100 to 500 |
| CCCC(NC(=O)[C@@H]1[C@@H](CC)CCN1C(=O)[C@@H](NC(=O)[C@@H](NC(=O)c1cnccn1)C(C)C)[C@H](C)OC)C(=O)C(=O)N[C@@H](Cc1ccccc1)C(=O)O (stereo partly drawn) [Compound 33] (Pyrazinecarbonyl-V[aThr](Me)[Pro(3S-Et)][X1]F-OH) | 100 to 500 |
| CCCC(NC(=O)[C@@H]1[C@@H](C(C)C)CCN1C(=O)[C@@H](NC(=O)[C@@H](NC(=O)c1cnccn1)C(C)C)C(C)C)C(=O)C(=O)N[C@@H](Cc1ccccc1)C(=O)O (stereo partly drawn) [Compound 16] (Pyrazinecarbonyl-VV[Pro(trans-3-iPr)][X1]F-OH) | 100 to 500 |
| CCCC(NC(=O)[C@@H]1[C@@H](CC)CCN1C(=O)[C@@H](NC(=O)[C@@H](NC(=O)c1cnccn1)C1CCCCC1)C(C)C)C(=O)C(=O)NC1CC1 (stereo partly drawn) [Compound 45] | > 500 |
| CCCC(NC(=O)[C@@H]1[C@@H](CC)CCN1C(=O)[C@@H](NC(=O)[C@@H](NC(=O)c1cnccn1)C1CCCCC1)C(C)C)C(=O)C(=O)N[C@@H](Cc1ccccc1)C(=O)O (stereo partly drawn) [Compound 26] (Pyrazinecarbonyl-[Chg]V[Pro(3S-Et)][X1]F-OH) | < 100 |
| CCCC(NC(=O)[C@@H]1[C@@H](CC)CCN1C(=O)[C@@H](NC(=O)[C@@H](NC(=O)c1cnccn1)C(C)C)C(C)CC)C(=O)C(=O)N[C@@H](Cc1ccccc1)C(=O)O (stereo partly drawn) [Compound 30] (Pyrazinecarbonyl-V[Ile(3ξ)][Pro(3S-Et)][X1]F-OH) | 100 to 500 |
| CCCC(NC(=O)[C@@H]1[C@@H](CC)CCN1C(=O)[C@@H](NC(=O)[C@@H](NC(=O)c1cnccn1)C(C)C)[C@@H](C)OC)C(=O)C(=O)N[C@@H](Cc1ccccc1)C(=O)O (stereo partly drawn) [Compound 35] (Pyrazinecarbonyl-VT(Me)[Pro(3S-Et)][X1]F-OH) | > 500 |
| C=C[C@H]1CCN(C(=O)[C@@H](NC(=O)[C@@H](NC(=O)c2cnccn2)C(C)C)C(C)C)[C@@H]1C(=O)NC(CCC)C(=O)C(=O)N[C@@H](Cc1ccccc1)C(=O)O (stereo partly drawn) [Compound 19] | 100 to 500 |
| CCCC(NC(=O)[C@@H]1[C@@H](CC)CCN1C(=O)[C@@H](NC(=O)[C@@H](NC(=O)c1cnccn1)C(C)C)C(C)(C)C)C(=O)C(=O)N[C@@H](Cc1ccccc1)C(=O)O (stereo partly drawn) [Compound 31] (Pyrazinecarbonyl-V[Tle][Pro(3S-Et)][X1]F-OH) | < 100 |
| CCCC(NC(=O)[C@@H]1[C@@H](CC)CCN1C(=O)[C@@H](NC(=O)[C@H](Cc1ccccc1C)NC(=O)c1cnccn1)C(C)C)C(=O)C(=O)N[C@@H](Cc1ccccc1)C(=O)O (stereo partly drawn) [Compound 27] (Pyrazinecarbonyl-[Phe(2-Me)]V[Pro(3S-Et)][X1]F-OH) | < 100 |
| CCCC(NC(=O)[C@@H]1[C@@H](CC2CC2)CCN1C(=O)[C@@H](NC(=O)[C@@H](NC(=O)c1cnccn1)C(C)C)C(C)C)C(=O)C(=O)N[C@@H](Cc1ccccc1)C(=O)O (stereo partly drawn) [Compound 20] | 100 to 500 |
| CCCC(NC(=O)[C@@H]1[C@@H](CC)CCN1C(=O)[C@@H](NC(=O)[C@@H](NC(=O)c1cnccn1)C1CCCCC1)C1CCCCC1)C(=O)C(=O)NC1CC1 (stereo partly drawn) [Compound 46] | 100 to 500 |
| CCCC(NC(=O)[C@@H]1[C@@H](CC)CCN1C(=O)[C@@H](NC(=O)[C@@H](NC(=O)c1cnccn1)C1CCCCC1)C(C)CC)C(=O)C(=O)N[C@@H](Cc1ccccc1)C(=O)O (stereo partly drawn) [Compound 29] (Pyrazinecarbonyl-[Chg][Ile(3ξ)][Pro(3S-Et)][X1]F-OH) | < 100 |
| CCCC(NC(=O)[C@@H]1[C@@H](CC)CCN1C(=O)[C@@H](NC(=O)[C@@H](NC(=O)c1cnccn1)C(C)C)C1CCCCC1)C(=O)C(=O)N[C@@H](Cc1ccccc1)C(=O)O (stereo partly drawn) [Compound 32] (Pyrazinecarbonyl-V[Chg][Pro(3S-Et)][X1]F-OH) | 100 to 500 |
